Results from patent US9708336B2, “Metallo-beta-lactamase inhibitors” (priority 2014, dated 2017).
pIC50: −log10 of the molar value. Where two headings read alike, the source gives them in different places.

Experiments:
NDM-1 = NDM-1 (Klebsiella pneumoniae, UniProt C7C422); assay: biochemical; format: biochemical; details: read-out: NDM-1 IC50
IMP-1 = IMP-1 (Serratia marcescens, UniProt P52699); assay: biochemical; format: biochemical; details: read-out: IMP-1 IC50
VIM-1 = VIM-1 (Pseudomonas aeruginosa (strain ATCC 15692 / DSM 22644 / CIP 104116 / JCM 14847 / LMG 12228 / 1C / PRS 101 / PAO1), UniProt A0A0F7KYQ8); assay: Enzyme activity: determination of IC50, fluorescence assay with CCF2-FA substrate (VIM-1); format: biochemical
[1] = tested on: Escherichia coli expressing NDM-1 (CLB30005); assay: Antibiotic potentiation activity: synergistic concentration (MITC95) with imipenem, OD600 growth; format: cell-based; details: for Escherichia coli MITC95: Escherichia coli expressing NDM-1 (CLB30005), 95% growth inhibition; for Escherichia coli expressing NDM-1 (CLB 30005) MITC95: concentration giving 95% inhibition of bacterial growth
Method in brief: (§1)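 Inoculum: saline suspension of overnight colonies, 1:100 into 1.1× CAMHB. Imipenem 4 μg/ml final (alt. 1 μg/ml) + compound; 35 °C, 22–24 h; absorbance read-out.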

[2] = tested on: Klebsiella pneumoniae expressing VIM-1 (IHMA599644); assay: as above; format: cell-based; details: for Klebsiella pneumoniae MITC95: Klebsiella pneumoniae expressing VIM-1 (IHMA599644), 95% growth inhibition; for Klebsiella pneumoniae expressing VIM-1 (IHMA 599644) MITC95: concentration giving 95% inhibition of bacterial growth
Method in brief: as §1

[3] = tested on: Serratia marcescens expressing IMP-1 (CL5741); assay: as above; format: cell-based; details: for Serratia marcescens MITC95: Serratia marcescens expressing IMP-1 (CL5741), 95% growth inhibition; for Serratia marcescens expressing IMP-1 (CL5741) MITC95: concentration giving 95% inhibition of bacterial growth
Method in brief: as §1

[4] = NDM-1 enzyme, CCF2-FA fluorescence assay
[5] = IMP-1 enzyme, CCF2-FA fluorescence assay
[6] = VIM-1 enzyme, CCF2-FA fluorescence assay, read-out: VIM-1 IC50
[7] = fluorescence assay with CCF2-FA substrate
[8] = fluorescence assay with CCF2-FA substrate, read-out: VIM-1 IC50

NDM-1, sequence (C7C422 whole entry, looked up, species assumed): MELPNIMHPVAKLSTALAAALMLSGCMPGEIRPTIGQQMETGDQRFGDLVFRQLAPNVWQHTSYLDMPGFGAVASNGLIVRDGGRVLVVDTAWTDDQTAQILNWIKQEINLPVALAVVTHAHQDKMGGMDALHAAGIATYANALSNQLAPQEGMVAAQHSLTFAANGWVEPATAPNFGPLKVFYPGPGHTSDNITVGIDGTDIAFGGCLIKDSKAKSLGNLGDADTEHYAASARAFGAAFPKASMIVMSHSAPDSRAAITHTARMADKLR
IMP-1, sequence (P52699 whole entry, looked up): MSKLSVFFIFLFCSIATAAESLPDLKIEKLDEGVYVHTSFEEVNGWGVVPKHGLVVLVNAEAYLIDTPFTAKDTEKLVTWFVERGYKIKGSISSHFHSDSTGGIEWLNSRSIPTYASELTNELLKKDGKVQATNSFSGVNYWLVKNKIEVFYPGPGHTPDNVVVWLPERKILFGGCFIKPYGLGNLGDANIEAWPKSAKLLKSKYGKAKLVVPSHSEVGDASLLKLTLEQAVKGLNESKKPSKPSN

Row | Structure (SMILES) | pIC50 (NDM-1; [4]) | pIC50 (IMP-1; [5]) | pIC50 (VIM-1; [6]) | Escherichia coli MITC95 [1] | Klebsiella pneumoniae MITC95 [2] | Serratia marcescens MITC95 [3] | pIC50 (NDM-1; [7]) | pIC50 (IMP-1; [7]) | pIC50 (VIM-1; [8]) | Escherichia coli expressing NDM-1 (CLB 30005) MITC95 [1] | Klebsiella pneumoniae expressing VIM-1 (IHMA 599644) MITC95 [2] | Serratia marcescens expressing IMP-1 (CL5741) MITC95 [3] | pIC50 (VIM-1; VIM-1 IC50, VIM-1 enzyme, CCF2-FA fluorescence assay)
1 | CS(=O)(=O)c1nc2cc(Cl)c(-c3cccc(S(N)(=O)=O)c3-c3nn[nH]n3)cc2[nH]1 [Example 278, 3-(5-chloro-2-(methylsulfonyl)-1H-benzo[d]imidazol-6-yl)-2-(2H-tetrazol-5-yl)benzenesulfonamide] | 8.07 | 6.27 | 7.10 | 3.125 µM | 100 µM | 37.5 µM | – | – | – | – | – | – | –
2 | NS(=O)(=O)c1cccc(C(=O)O)c1-c1nn[nH]n1 [Example 297, 3-Sulfamoyl-2-(2H-tetrazol-5-yl)benzoic acid] | 5.61 | 4.70 | 4.70 | 12.5 µM | >200 µM | >200 µM | – | – | – | – | – | – | –
3 | Cc1ccc(-c2cc(-c3ccc4c(c3)CNC4=O)cc(S(N)(=O)=O)c2-c2nn[nH]n2)cc1 [Example 290, 4′-Methyl-5-(1-oxoisoindolin-5-yl)-2-(2H-tetrazol-5-yl)-[1,1′-biphenyl]-3-sulfonamide] | 9.20 | 7.71 | 7.46 | 3.516 µM | >200 µM | 19.53 µM | – | – | – | – | – | – | –
4 | NS(=O)(=O)c1cccc(-c2ccc(N3CCOCC3)cc2)c1-c1nn[nH]n1 [Example 12] | – | – | – | – | – | – | 8.46 | 7.38 | 7.02 | 3.125 µM | 200 µM | 6.25 µM | –
5 | NS(=O)(=O)c1cccc(-c2ccnc(F)c2)c1-c1nn[nH]n1 [Example 46, 3-(2-fluoropyridin-4-yl)-2-(2H-tetrazol-5-yl)benzenesulfonamide] | – | – | – | – | – | – | 7.84 | 6.52 | 7.00 | 0.5859 µM | 28.13 µM | 25 µM | –
6 | NS(=O)(=O)c1nccc(-c2ccc3c(c2)CNC3=O)c1-c1nnn[nH]1 [Example 192, 4-(1-oxoisoindolin-5-yl)-3-(1H-tetrazol-5-yl)pyridine-2-sulfonamide] | – | – | – | – | – | – | 7.44 | 6.36 | 7.01 | 1.953 µM | 50 µM | 50 µM | –
7 | NS(=O)(=O)c1cccc(-c2ccc(N3CCOCC3)nc2)c1-c1nn[nH]n1 [Example 323, 3-(6-morpholinopyridin-3-yl)-2-(2H-tetrazol-5-yl)benzenesulfonamide] | 8.11 | 7.15 | 6.82 | 2.344 µM | 200 µM | 12.5 µM | – | – | – | – | – | – | –
8 | COc1ccc(-c2cccc(S(N)(=O)=O)c2-c2nn[nH]n2)cn1 [Example 78, 3-(6-methoxypyridin-3-yl)-2-(2H-tetrazol-5-yl)benzenesulfonamide] | – | – | – | – | – | – | 7.71 | 6.69 | 6.83 | 0.7813 µM | 100 µM | 18.75 µM | –
9 | NS(=O)(=O)c1nccc(-c2ccc(C(=O)NC3CC3)cc2)c1-c1nnn[nH]1 [Example 185, N-Cyclopropyl-4-(2-sulfamoyl-3-(1H-tetrazol-5-yl)pyridin-4-yl)benzamide] | – | – | – | – | – | – | 6.87 | 5.83 | 5.69 | 2.344 µM | >200 µM | 75 µM | –
10 | NS(=O)(=O)c1cccc(-c2cnc(N3CCNCC3)nc2)c1-c1nn[nH]n1 [Example 320, 3-(2-(Piperazin-1-yl)pyrimidin-5-yl)-2-(2H-tetrazol-5-yl)benzenesulfonamide] | 7.84 | 6.53 | – | 0.6836 µM | 6.25 µM | 9.375 µM | – | – | – | – | – | – | 7.44
11 | NS(=O)(=O)c1cccc(C2=CCCOC2)c1-c1nn[nH]n1 [Example 63, 3-(5,6-dihydro-2H-pyran-3-yl)-2-(2H-tetrazol-5-yl)benzenesulfonamide] | – | – | – | – | – | – | 7.31 | 5.81 | 5.88 | 0.7813 µM | 100 µM | 50 µM | –
12 | Cc1nc2ccccc2n1Cc1ccc(-c2cccc(S(N)(=O)=O)c2-c2nnn[nH]2)cc1 [Example 304, 4′-((2-methyl-1H-benzo[d]imidazol-1-yl)methyl)-2-(1H-tetrazol-5-yl)-[1,1′-biphenyl]-3-sulfonamide] | 7.53 | 7.30 | 6.99 | 6.25 µM | >200 µM | 7.031 µM | – | – | – | – | – | – | –
13 | N#Cc1ccc2[nH]c(-c3cccc(S(N)(=O)=O)c3-c3nn[nH]n3)cc2c1 [Example 99, 3-(5-cyano-1H-indol-2-yl)-2-(2H-tetrazol-5-yl)benzenesulfonamide] | – | – | – | – | – | – | 8.16 | 6.68 | 6.98 | 9.375 µM | >200 µM | 28.13 µM | –
14 | NS(=O)(=O)c1nccc(-c2ccc(C3CCNCC3)cc2)c1-c1nnn[nH]1 [Example 197, 4-(4-(piperidin-4-yl)phenyl)-3-(1H-tetrazol-5-yl)pyridine-2-sulfonamide] | – | – | – | – | – | – | 6.89 | 6.24 | 7.15 | 0.3906 µM | 1.563 µM | 1.563 µM | –
15 | NS(=O)(=O)c1nncc(-c2ccc(Br)cc2)c1-c1nn[nH]n1 [Example 277, 5-(4-Bromophenyl)-4-(2H-tetrazol-5-yl)pyridazine-3-sulfonamide] | 6.53 | 5.28 | 5.91 | 12.5 µM | >200 µM | 125 µM | – | – | – | – | – | – | –
16 | NC(=O)c1ccc(-c2cccc(S(N)(=O)=O)c2-c2nn[nH]n2)cc1 [Example 15, 3′-sulfamoyl-2′-(2H-tetrazol-5-yl)biphenyl-4-carboxamide] | – | – | – | – | – | – | 8.22 | 6.87 | 7.21 | 0.3906 µM | 18.75 µM | 15.63 µM | –
17 | Cn1ncc2cc(-c3cccc(S(N)(=O)=O)c3-c3nn[nH]n3)ccc21 [Example 68, 3-(1-methyl-1H-indazol-5-yl)-2-(2H-tetrazol-5-yl)benzenesulfonamide] | – | – | – | – | – | – | 8.70 | 7.09 | 7.47 | 2.344 µM | 75 µM | 12.5 µM | –
18 | CN(c1ncc(-c2cccc(S(N)(=O)=O)c2-c2nn[nH]n2)cn1)S(C)(=O)=O [Example 55, 3-{2-[methyl(methylsulfonyl)amino]pyrimidin-5-yl}-2-(2H-tetrazol-5-yl)benzenesulfonamide] | – | – | – | – | – | – | 8.46 | 7.28 | 6.84 | 1.953 µM | 200 µM | 12.5 µM | –
